Test results published in patent publication US8354403B2, “Pyrrolidine derived beta 3 adrenergic receptor agonists” (Merck Sharp & Dohme Corp., priority 2009, dated 2013).

Target: T1, human β3 adrenergic receptor (Homo sapiens, UniProt P13945)
T1 construct: expressed in transfected cells; host or cells: Chinese hamster ovary (CHO) cells, stably transfected
Assay: Beta-3 agonist in vitro functional assay: cAMP production (LANCE TR-FRET) in CHO cells stably transfected with the cloned β3 receptor
Assay type: cell-based
Details: Table 4; cAMP, CHO cells; read-out: Human β3 agonist functional activity
Outline: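 CHO cells stably expressing the cloned receptor, in HEPES-buffered HBSS with BSA and 0.6 mM IBMX, 6,000 cells/well, exposed to compound for 30 min at RT. cAMP read by LANCE TR-FRET against a cAMP standard curve. Isoproterenol defines maximal stimulation.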

T1 sequence (P13945 whole entry): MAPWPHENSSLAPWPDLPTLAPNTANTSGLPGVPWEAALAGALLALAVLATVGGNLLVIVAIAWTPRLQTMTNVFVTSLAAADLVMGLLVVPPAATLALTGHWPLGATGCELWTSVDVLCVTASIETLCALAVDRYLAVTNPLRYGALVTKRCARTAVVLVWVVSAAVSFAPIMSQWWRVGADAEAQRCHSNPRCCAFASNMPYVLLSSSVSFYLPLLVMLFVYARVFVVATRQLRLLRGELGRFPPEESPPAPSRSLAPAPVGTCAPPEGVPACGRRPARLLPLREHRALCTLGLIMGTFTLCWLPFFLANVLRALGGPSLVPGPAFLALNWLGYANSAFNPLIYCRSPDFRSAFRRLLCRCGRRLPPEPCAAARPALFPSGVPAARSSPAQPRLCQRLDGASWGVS

Row | Compound | EC50
1 | O=C(c1ccc(C[C@@H]2CC[C@H]([C@H](O)c3ccccc3)N2)cc1)N1CCCC(S(=O)(=O)c2ncc(Br)s2)C1 (stereo partly shown) [Example 38] | 0.01 to 0.0999 µM
2 | CCOC(=O)C1(F)CCCN(C(=O)c2ccc(C[C@@H]3CC[C@H]([C@H](O)c4ccccc4)N3)cc2)C1 (stereo partly shown) [Example 37] | 0.1 to 0.999 µM
3 | O=C(c1ccc(C[C@@H]2CC[C@H]([C@H](O)c3ccccc3)N2)cc1)N1CCCC(c2nc3ccccc3o2)C1 (stereo partly shown) [Example 33] | 0.1 to 0.999 µM

Second part, the compound after the results:

Row | EC50 | Compound
4 | 0.01 to 0.0999 µM | C[C@@H]1CN(C(=O)c2ccc(C[C@@H]3CC[C@H]([C@H](O)c4ccccc4)N3)cc2)CC[C@@H]1n1cccn1 [Example 60]
5 | 0.1 to 0.999 µM | O=C(c1ccc(C[C@@H]2CC[C@H]([C@H](O)c3ccccc3)N2)cc1)N1Cc2cncnc2C1 [Example 25]
6 | 0.1 to 0.999 µM | O=C(c1ccc(C[C@@H]2CC[C@H]([C@H](O)c3ccccc3)N2)cc1)N1CC2CC(n3cncn3)CC2C1 (stereo partly shown) [Example 22]
7 | 0.1 to 0.999 µM | C[C@@H]1CN(C(=O)c2ccc(C[C@@H]3CC[C@H]([C@H](O)c4ccccc4)N3)cc2)CC[C@H]1n1cccn1 [Example 61]

Same assay, conditions: Table 5; cAMP, CHO cells; read-out: Human β3 agonist functional activity

Row | EC50 | Compound
8 | 0.1 to 0.999 µM | O=C(c1ccc(C[C@@H]2CC[C@H]([C@H](O)c3ccccc3)N2)cc1)N1CCC(Cn2ccnc2)CC1 [Example 142]
9 | 0.001 to 0.0099 µM | Cc1nnnn1C1CCN(C(=O)c2ccc(C[C@@H]3CC[C@H]([C@H](O)c4ccccc4)N3)cc2)CC1 [Example 101]
10 | 0.01 to 0.0999 µM | O=C(c1ccc(C[C@@H]2CC[C@H]([C@H](O)c3ccccc3)N2)cc1)N1CCC(Cc2ccc(F)cc2)CC1 [Example 145]
11 | 0.1 to 0.999 µM | O=C(O)C1CCN(C(=O)c2ccc(C[C@@H]3CC[C@H]([C@H](O)c4ccccc4)N3)cc2)CC1 [Example 117]
12 | 0.01 to 0.0999 µM | O=C(c1ccc(C[C@@H]2CC[C@H]([C@H](O)c3ccccc3)N2)cc1)N1CCC(COc2ccncn2)CC1 [Example 162]
13 | 0.1 to 0.999 µM | NC(=O)C1CCN(C(=O)c2ccc(C[C@@H]3CC[C@H]([C@H](O)c4ccccc4)N3)cc2)CC1 [Example 116]
14 | 0.1 to 0.999 µM | O=C(c1ccc(C[C@@H]2CC[C@H]([C@H](O)c3ccccc3)N2)cc1)N1CCC(Oc2cncc(Cl)n2)CC1 [Example 155]

Same assay, conditions: Table 7; cAMP, CHO cells; ranges as given for Tables 6 and 7; read-out: Human β3 agonist functional activity

Row | EC50 | Compound
15 | 0.1 to 0.999 µM | O=C(c1ccc(CC2CCC(C(O)c3ccccc3)N2)cc1)N1CC2C(C1)C2Cn1nccn1 (stereo not shown) [Example 232]

Same assay, conditions: Table 8; Beta-3 agonist in vitro functional assay; read-out: Human β3 agonist functional activity

Row | Compound | EC50
16 | O=C1OC2(CCN(C(=O)c3ccc(C[C@@H]4CC[C@H]([C@H](O)c5cccnc5)N4)cc3)CC2)CC1Cc1ccc(F)cc1 (stereo partly shown) [Example 277] | 0.001 to 0.0099 µM
17 | CC1C(=O)c2cc(S(C)(=O)=O)ccc2OC12CCN(C(=O)c1ccc(C[C@@H]3CC[C@H]([C@H](O)c4ccccc4)N3)cc1)CC2 (stereo partly shown) [Example 335] | 0.01 to 0.0999 µM
18 | O=C1OC2(CCN(C(=O)c3ccc(C[C@@H]4CC[C@H]([C@H](O)c5cccnc5)N4)cc3)CC2)c2ccccc21 [Example 284] | 0.001 to 0.0099 µM
19 | O=C(c1ccc(C[C@@H]2CC[C@H]([C@H](O)c3ccccc3)N2)cc1)N1CCC2(CC1)C(=O)NCC2c1ccccc1C(F)(F)F (stereo partly shown) [Example 265] | 0.001 to 0.0099 µM

Now from value to compound:

Row | EC50 | Compound
20 | 0.001 to 0.0099 µM | CC1COC(=O)C12CCN(C(=O)c1ccc(C[C@@H]3CC[C@H]([C@H](O)c4ccccc4)N3)cc1)CC2 (stereo partly shown) [Example 296]
21 | 0.1 to 0.999 µM | O=C(c1ccc(C[C@@H]2CC[C@H]([C@H](O)c3ccccc3)N2)cc1)N1CCC2(CCc3cn[nH]c32)CC1 [Example 321]
22 | 0.01 to 0.0999 µM | O=C(c1ccc(C[C@@H]2CC[C@H]([C@H](O)c3ccccc3)N2)cc1)N1CCC2(CC1)NCNC2=O [Example 258]

Same assay, conditions: Table 9; Beta-3 agonist in vitro functional assay; read-out: Human β3 agonist functional activity

Row | EC50 | Compound
23 | 0.01 to 0.0999 µM | COC(=O)COc1cccnc1N1CCN(C(=O)c2ccc(C[C@@H]3CC[C@H]([C@H](O)c4ccccc4)N3)cc2)CC1 [Example 368]
24 | 0.01 to 0.0999 µM | O=C(c1ccc(C[C@@H]2CC[C@H]([C@H](O)c3ccccc3)N2)cc1)N1CCN(Cc2cnccn2)CC1 [Example 426]
25 | 0.01 to 0.0999 µM | O=C(c1ccc(C[C@@H]2CC[C@H]([C@H](O)c3ccccc3)N2)cc1)N1CCN(c2ncccc2-c2ccc(F)cc2)CC1 [Example 369]
26 | 0.01 to 0.0999 µM | O=C(c1ccc(C[C@@H]2CC[C@H]([C@H](O)c3ccccc3)N2)cc1)N1CCN(Cc2ncccc2O)CC1 [Example 413]

Same assay, conditions: Table 10; Beta-3 agonist in vitro functional assay; read-out: Human β3 agonist functional activity

Row | EC50 | Compound
27 | 0.01 to 0.0999 µM | CC(C(=O)NCc1cnoc1)N1CCN(C(=O)c2ccc(C[C@@H]3CC[C@H]([C@H](O)c4ccccc4)N3)cc2)CC1 (stereo partly shown) [Example 461]
28 | 0.01 to 0.0999 µM | CC(C(=O)NC1(c2ccccn2)CC1)N1CCN(C(=O)c2ccc(C[C@@H]3CC[C@H]([C@H](O)c4ccccc4)N3)cc2)CC1 (stereo partly shown) [Example 470]
29 | 0.01 to 0.0999 µM | CC(C(=O)N1CCCC2(CCCCO2)C1)N1CCN(C(=O)c2ccc(C[C@@H]3CC[C@H]([C@H](O)c4ccccc4)N3)cc2)CC1 (stereo partly shown) [Example 498]
30 | 0.01 to 0.0999 µM | CC(C(=O)N1C[C@@H]2C[C@H]1CO2)N1CCN(C(=O)c2ccc(C[C@@H]3CC[C@H]([C@H](O)c4ccccc4)N3)cc2)CC1 (stereo partly shown) [Example 500]
31 | 0.001 to 0.0099 µM | CC(C(=O)O)N1CCN(C(=O)c2ccc(C[C@@H]3CC[C@H]([C@H](O)c4ccccc4)N3)cc2)CC1 (stereo partly shown) [Example 433]
32 | 0.01 to 0.0999 µM | CC(C(=O)N1CCCCC12CC2)N1CCN(C(=O)c2ccc(C[C@@H]3CC[C@H]([C@H](O)c4ccccc4)N3)cc2)CC1 (stereo partly shown) [Example 493]

Same assay, conditions: Table 11; cAMP, CHO cells; read-out: Human β3 agonist functional activity

Row | EC50 | Compound
33 | 0.01 to 0.0999 µM | C[C@@H]1CN(C(=O)c2ccc(C[C@@H]3CC[C@H]([C@H](O)c4ccccc4)N3)cc2)CCN1Cc1ccccn1 [Example 527]
34 | 0.1 to 0.999 µM | O=C(c1ccc(C[C@@H]2CC[C@H]([C@H](O)c3ccccc3)N2)cc1)N1CCN(c2ccccn2)C(=O)C1 [Example 546]
35 | 0.1 to 0.999 µM | C[C@H](c1ccccn1)N1CC2CCC1CN2C(=O)c1ccc(C[C@@H]2CC[C@H]([C@H](O)c3ccccc3)N2)cc1 (stereo partly shown) [Example 541]

Same assay, conditions: Table 12; human β3 functional activity given as ranges; read-out: Human β3 agonist functional activity

Row | EC50 | Compound
36 | 0.01 to 0.0999 µM | CC(c1ncco1)N1CCN(C(=O)c2ccc(CC3CCC(C(O)c4ccccc4)N3)cc2)CC1 (single isomer, unassigned) [Example 583]
37 | 0.001 to 0.0099 µM | O=C(c1ccc(CC2CCC(C(O)c3ccccc3)N2)cc1)N1CCN(C2CCc3cccnc32)CC1 (single isomer, unassigned) [Example 598]
38 | 0.001 to 0.0099 µM | CCC1CC2(CCN(C(=O)c3ccc(CC4CCC(C(O)c5ccccc5)N4)cc3)CC2)C(=O)O1 (single isomer, unassigned) [Example 564]
39 | 0.01 to 0.0999 µM | CC(c1ncccn1)N1CCN(C(=O)c2ccc(CC3CCC(C(O)c4ccccc4)N3)cc2)CC1 (single isomer, unassigned) [Example 596]
40 | 0.001 to 0.0099 µM | O=C(c1ccc(CC2CCC(C(O)c3ccccc3)N2)cc1)N1CCN(C(c2ccccn2)C2CC2)CC1 (single isomer, unassigned) [Example 590]
41 | 0.001 to 0.0099 µM | CCC(c1ccccn1)N1CCN(C(=O)c2ccc(CC3CCC(C(O)c4ccccc4)N3)cc2)CC1 (single isomer, unassigned) [Example 588]

Same assay, conditions: human β3 functional activity

Row | Compound | EC50
42 | C[C@@H](c1ccccn1)N1C2CCC1C1CCC2N1C(=O)c1ccc(C[C@@H]2CC[C@H]([C@H](O)c3ccccc3)N2)cc1 [Example 526] | 0.01 to 0.0999 µM

Target: T2, β3AR (Rattus norvegicus, UniProt P26255)
T2 construct: host or cells: live rats (bladder, in vivo)
Assay: not given
Details: rats, intravenous administration, cystometric studies; cited from earlier work

T2 sequence (P26255 whole entry): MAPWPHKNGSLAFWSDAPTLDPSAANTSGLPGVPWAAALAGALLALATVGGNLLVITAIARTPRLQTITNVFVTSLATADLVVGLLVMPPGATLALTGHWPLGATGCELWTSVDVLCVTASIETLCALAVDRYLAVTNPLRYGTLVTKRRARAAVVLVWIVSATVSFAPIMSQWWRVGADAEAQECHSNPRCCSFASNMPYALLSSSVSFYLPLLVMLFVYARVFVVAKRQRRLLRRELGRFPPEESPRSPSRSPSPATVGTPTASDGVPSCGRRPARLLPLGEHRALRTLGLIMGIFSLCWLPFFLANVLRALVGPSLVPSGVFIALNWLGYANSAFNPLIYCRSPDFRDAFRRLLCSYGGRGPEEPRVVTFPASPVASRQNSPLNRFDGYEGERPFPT

Row | Compound | bladder capacity | micturition interval | residual urine volume
43 | C[C@H](Cc1ccc2c(c1)OC(C(=O)[O-])(C(=O)[O-])O2)NC[C@H](O)c1cccc(Cl)c1.[Na+].[Na+] [CL316243] | increases bladder capacity | prolongation of micturition interval | without increasing residual urine volume

Same assay, conditions: rats, intravenous administration; cited from earlier work

Row | Compound | bladder pressure
44 | C[C@H](Cc1ccc2c(c1)OC(C(=O)[O-])(C(=O)[O-])O2)NC[C@H](O)c1cccc(Cl)c1.[Na+].[Na+] [CL316243] | reduces bladder pressure
